Laboratory results: ChEMBL document CHEMBL1201862, “PubChem BioAssay data set” (2004)
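96-well plates; 48 h exposure; 5 concentrations. Endpoints by linear interpolation between flanking doses. Not reached: highest tested concentration assigned. Here, GI50 denotes the concentration required for 50% inhibition of growth.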 Active and inactive are the calls of the source. No stated cut-off is given here; in the data, active = GI50 up to about 1.1 µM and inactive = higher.

Experiments:
Test in all cases: growth of human tumour cells (NCI), 48 h
[1] = test system: RPMI-8226
[2] = test system: NCI-H460
[3] = test system: NCI-H23
[4] = test system: SK-MEL-2
[5] = test system: UACC-257
[6] = test system: SR
[7] = test system: ACHN
[8] = test system: SNB-19
[9] = test system: M14
[10] = test system: HCC 2998
[11] = test system: TK-10
[12] = test system: SF-268
[13] = test system: A549
[14] = test system: UACC-62
[15] = test system: EKVX
[16] = test system: UO-31
[17] = test system: BT-549
[18] = test system: RXF 393
[19] = test system: DU-145

Structure (SMILES) | GI50 [1] | GI50 [2] | GI50 [3] | GI50 [4] | GI50 [5] | GI50 [6] | GI50 [7] | GI50 [8] | GI50 [9] | GI50 [10] | GI50 [11] | GI50 [12] | GI50 [13] | GI50 [14] | GI50 [15] | GI50 [16] | GI50 [17] | GI50 [18] | GI50 [19]
Cc1cc(C)c(C2CC(O)C(CO)O2)cc1C (stereo unspecified) | > 100 µM (inactive) | > 100 µM (inactive) | > 100 µM (inactive) | > 100 µM (inactive) | > 100 µM (inactive) | > 100 µM (inactive) | > 100 µM (inactive) | > 100 µM (inactive) | > 100 µM (inactive) | > 100 µM (inactive) | > 100 µM (inactive) | > 100 µM (inactive) | > 100 µM (inactive) | > 100 µM (inactive) | > 100 µM (inactive) | > 100 µM (inactive) | > 100 µM (inactive) |  | 
CCCC(=O)NC1CCc2cc(OC)c(OC)c(OC)c2-c2ccc(OC)c(=O)cc21 (stereo unspecified) | 0.01 µM (active) | 0.000644 µM (active) | 0.000715 µM (active) | 0.01 µM (active) |  | 0.114 µM (active) | 0.019 µM (active) | 0.000519 µM (active) | 0.000817 µM (active) | 0.00186 µM (active) | 78.5 µM (inactive) | 0.00157 µM (active) | 0.00538 µM (active) | 0.000303 µM (active) | 0.000577 µM (active) | 0.0813 µM (active) | 0.01 µM (active) | 0.01 µM (active) | 0.00117 µM (active)
COc1ccc(-c2csc3c2-n2cccc2C3=O)cc1 | 0.0425 µM (active) | 0.11 µM (active) | 0.438 µM (active) | 0.366 µM (active) |  | 0.0206 µM (active) | 0.805 µM (active) | 0.0745 µM (active) | 0.0346 µM (active) | 0.344 µM (active) |  | 1.75 µM (inactive) | 0.159 µM (active) | 0.0269 µM (active) | 0.767 µM (active) | 0.11 µM (active) | 8.93 µM (inactive) | 0.07 µM (active) | 0.175 µM (active)
CCCCCCc1cc2cc(C(=O)Nc3ccc(F)cc3)c(=N)oc2cc1O | 1.17 µM (inactive) | 3.51 µM (inactive) | 1.78 µM (inactive) | 3.13 µM (inactive) | 3.37 µM (inactive) | 2.62 µM (inactive) | 2.89 µM (inactive) | 2.98 µM (inactive) | 2.92 µM (inactive) | 5.37 µM (inactive) |  | 0.735 µM (active) | 3.21 µM (inactive) | 1.92 µM (inactive) | 3.27 µM (inactive) | 3.36 µM (inactive) | 2.66 µM (inactive) |  | 2.71 µM (inactive)
Nn1c(CNc2ccc(-c3nnc(Nc4ccc(Cl)cc4)n3N)cc2)nnc1Nc1ccc(Cl)cc1 | 61.9 µM (inactive) | > 100 µM (inactive) | > 100 µM (inactive) | > 100 µM (inactive) | > 100 µM (inactive) |  | > 100 µM (inactive) | > 100 µM (inactive) | 51.6 µM (inactive) | > 100 µM (inactive) | > 100 µM (inactive) | > 100 µM (inactive) | > 100 µM (inactive) | 50.9 µM (inactive) | > 100 µM (inactive) | 61.4 µM (inactive) | > 100 µM (inactive) | > 100 µM (inactive) | > 100 µM (inactive)
Cc1cn2c(C)csc2c1P(=O)(OC(C)C)OC(C)C | > 100 µM (inactive) | > 100 µM (inactive) | > 100 µM (inactive) | > 100 µM (inactive) | > 100 µM (inactive) | > 100 µM (inactive) | > 100 µM (inactive) | > 100 µM (inactive) | > 100 µM (inactive) | > 100 µM (inactive) | > 100 µM (inactive) | > 100 µM (inactive) | > 100 µM (inactive) | > 100 µM (inactive) | > 100 µM (inactive) | > 100 µM (inactive) | > 100 µM (inactive) | > 100 µM (inactive) | > 100 µM (inactive)
